# “And” between values parts separate entries of the source, which are not always exact repeats. Equal values may be shown once.
# What was measured:
# ITK [1] = target: T1, ITK (Homo sapiens, UniProt Q08881); assay: ITK degradation in DERL-2 cells (immunoblot); format: cell-based; parameters: endogenous in cells; host or cells: DERL-2 cells
# T1 sequence (Q08881 1-620): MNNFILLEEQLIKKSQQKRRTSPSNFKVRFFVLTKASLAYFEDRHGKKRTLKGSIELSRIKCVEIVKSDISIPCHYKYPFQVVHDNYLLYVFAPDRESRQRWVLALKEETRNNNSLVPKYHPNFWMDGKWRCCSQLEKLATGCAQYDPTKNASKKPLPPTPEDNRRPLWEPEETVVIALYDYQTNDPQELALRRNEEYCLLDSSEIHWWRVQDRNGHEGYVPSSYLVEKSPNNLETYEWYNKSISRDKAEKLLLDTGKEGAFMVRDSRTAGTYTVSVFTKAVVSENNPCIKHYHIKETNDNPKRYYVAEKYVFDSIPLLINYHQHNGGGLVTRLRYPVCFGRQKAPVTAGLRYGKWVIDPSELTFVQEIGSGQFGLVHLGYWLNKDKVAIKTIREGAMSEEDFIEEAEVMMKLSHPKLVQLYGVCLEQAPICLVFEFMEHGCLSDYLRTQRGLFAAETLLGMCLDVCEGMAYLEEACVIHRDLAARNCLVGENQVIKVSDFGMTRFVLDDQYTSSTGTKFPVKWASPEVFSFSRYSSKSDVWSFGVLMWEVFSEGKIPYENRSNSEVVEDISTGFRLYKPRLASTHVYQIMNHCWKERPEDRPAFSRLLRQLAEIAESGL
# Experimental: (§1) DERL-2 cells (hepatosplenic T-cell lymphoma) were treated with compound 1 for either 4 hours (FIG. 1A) or 18 hours (FIG. 1B) at the indicated doses. After treatment, DERL-2 cells were lysed in Cell Lysis Buffer (Cell Signaling Technology®) on ice for 30 minutes and lysates were clarified by centrifugation. Immunoblotting for ITK was performed to evaluate changes in protein levels upon ITK degrader treatment. All samples were run with equal total protein content and immunoblotting was performed using antibodies that detect total ITK protein as well as GAPDH as a loading control followed by washing and binding of horseradish peroxidase (HRP)-conjugated secondary antibodies. Blots were developed using SuperSignal™ Pico chemiluminescent substrate (Thermo Scientific).
# as §1, with “cells” for “cells (hepatosplenic T-cell lymphoma)”, “compound 1, compound 2 or ITK inhibitor (BMS509744)” for “compound 1”, “for” for “for either 4 hours (FIG. 1A) or”, “(FIG. 2)” for “(FIG. 1B)”, “After 18 hours,” for “After treatment,”
# Molt4 cells = assay: Proteome-wide profiling by TMT quantitative mass spectrometry; format: cell-based; conditions: 100 nM, 5 hours
# Experimental: Proteome-wide profiling experiments were performed according to the reported protocol (B. Jiang et al., Angew. Chem. Int. Ed. Engl. 58:6321-6326 (2019)). Molt4 cells were treated with DMSO vehicle, 100 nM of compound 1 or 100 nM of compound 2 for 5 hours. Protein abundance measurements were made using TMT quantitative mass spectrometry and significant changes were assessed by moderated t-test as implemented in the limma package. The log2 fold change (log2 FC) is shown on the […] and negative log10 p value (−log10 p value) on the […] for three independent biological replicates of each treatment.
# ITK [2] = target: T1, ITK; assay: In vivo ITK degradation in Hut78 xenograft tumors; parameters: endogenous in cells; host or cells: Hut78 cells (in culture; or engrafted subcutaneously in NSG mice and purified from tumours); species or system mouse; conditions: female NSG mice, engrafted Hut78 cells, 50 mg/kg intraperitoneal, 3 doses every 8 hours, 4 hours after last dose
# Experimental: In vivo degradation studies were conducted using female NSG mice. 6 eight-week-old NSG mice were injected subcutaneously with 1*10^7 of Hut78 cells. The injected mice were monitored for tumor formation twice a week until tumor growth reaches an average of 500 mm^3. Mice were then randomized into 3 mice per group, and treated with either vehicle (7.5% DMSO, 20% (2-hydroxypropyl)-β-cyclodextrin [HP-β-CD]) or compound 1 at 50 mg/kg via intraperitoneal injection for 3 doses (every 8 hours×3). Four hours after the last doing, mice were sacrificed to harvest tumors. Tumor tissues were cut into small pieces and dissociated into single cell suspension following the instruction of Tumor Dissociation Kit (Miltenyi Biotec, #130-095-929). Suspension cells were then depleted of mouse cells (Catalog #19849, STEMCELL technology). Purified tumor cells were lysed in Cell Lysis Buffer (Cell Signaling Technology®) on ice for 30 minutes and lysates were clarified by centrifugation. Immunoblotting for ITK was performed as described in Example 7 to evaluate protein level changes.
# ITK [3] = target: T1, ITK; assay: ITK degradation in Hut78 cells (immunoblot); format: cell-based; parameters: endogenous in cells; conditions: 1 μM, 18 hours
# Experimental: Hut78 cells (mycosis fungoides and Sezary syndrome) were treated with or without 1 μM of compound 1 for 18 hours. After treatment, Hut78 cells were lysed in Cell Lysis Buffer (Cell Signaling Technology®) on ice for 30 minutes and lysates were clarified by centrifugation. Immunoblotting for ITK was performed as described in Example 7 to evaluate changes in protein levels upon ITK degrader treatment.
# [4] = Mouse pharmacokinetic (PK) study; format: in vivo
# Experimental: Standard PK studies were conducted using male C57BI/6 mice obtained from Scripps Fla. A single 2 mg/kg intravenous (IV) injection of compound 1 solution in 5/90 DMSO/10% Captisol® was evaluated. Plasma concentrations of compound 1 reported at each of the 8 time points (5 min, 15 min, 30 min, 1 h, 2 h, 4 h, 6 h and 8 h post dosing) are the average values from 3 test animals.
# ITK [5] = target: T1, ITK; assay: ITK degradation in DERL-2 cells after pre-treatment with excess BMS509744; format: cell-based; parameters: endogenous in cells; host or cells: DERL-2 cells; conditions: 10 μM BMS509744 4 hours, then 100 nM compound 1 4 hours
# Experimental: DERL-2 cells were pre-treated with or without 10 μM BMS509744 for 4 hours. After 4 hours, 100 nM compound 1 was added and cells were cultured for another 4 hours. After treatment, DERL-2 cells were lysed in Cell Lysis Buffer (Cell Signaling Technology®) on ice for 30 minutes and lysates were clarified by centrifugation. Western blot was performed as described in Example 7 to detect protein expression levels of ITK, IKZF1, IKZF3, and GAPDH.
# DERL-2 cells = assay: Cell proliferation and cell death (PI, flow cytometry) of DERL-2 cells in culture with IL-2; format: cell-based
# Experimental: DERL-2 cells supplemented in culture with IL-2 (FIG. 4A) or without IL-2 (FIG. 4B and FIG. 4C) were treated with compound 1 at the indicated doses. Cells were split at 1:5 ratio with fixed concentration of compound 1 every two days. Cell numbers and cell death were quantified by flow cytometry. Propidium iodide (PI) solution, a marker of cell death, was added to cells 5 minutes before flow cytometry detection. Percent PI-positive is used to quantify cell death.
# DERL-2 cells in culture with IL-2 were treated with either 1 μM of compound 1, 1 μM BMS509744 or DMSO. Cells were split at 1:5 ratio and fresh compounds were added every two days. Cell numbers and cell death were quantified by flow cytometry. PI solution was added to cells 5 minutes before flow cytometry detection to indicate cell death.
# Hut78 cells = assay: Cell growth and cell death (PI, flow cytometry) of Hut78 cells; format: cell-based; conditions: Hut78 cells (independent of IL-2)
# ITK [6] = target: T1, ITK; assay: ITK degradation in DERL-2 cells with NAE inhibitor MLN4924 co-treatment; format: cell-based; parameters: endogenous in cells; host or cells: DERL-2 cells; conditions: 18 hours, combination with NAE inhibitor MLN4924
# Experimental: DERL-2 cells were treated with compound 1, the NEDD8-activating enzyme (NAE) inhibitor MLN4924, or in combination for 18 hours (FIG. 3) at […]. After 18 hours, DERL-2 cells were lysed in Cell Lysis Buffer (Cell Signaling Technology®) on ice for 30 minutes and lysates were clarified by centrifugation. Western blot was performed as described in Example 7.
# [7] = mouse, male C57BI/6 mice, single 2 mg/kg IV, plasma
# [8] = DERL-2 cells supplemented with IL-2
structure (smiles),measurement,setting,value
"COc1cc(C)c(Sc2cnc(NC(=O)c3ccc(N4CCN(CCCCCCCNC(=O)COc5cc6c7c(cccc7c5)C(=O)N(C5CCC(=O)NC5=O)C6=O)CC4)cc3)s2)cc1C(=O)N1CCN(C(C)=O)CC1 (stereo not drawn) [compound 2, N-(5-((5-(4-acetylpiperazine-1-carbonyl)-4-methoxy-2-methylphenyl)thio)thiazol-2-yl)-4-(4-(7-(2-((2-(2,6-dioxopiperidin-3-yl)-1,3-dioxo-2,3-dihydro-1H-benzo[de]isoquinolin-5-yl)oxy)acetamido)heptyl)piperazin-1-yl)benzamide]",concentration at which ITK degradation is evident,ITK [1]; 18 hours,100 nM
same,concentration of maximal ITK degradation,ITK [1]; 18 hours,1000 nM
same,degradation of ITK protein (immunoblot),ITK [1]; 18 hours,rapid and pronounced degradation of ITK protein
same,proteins downregulated (relative protein abundance),Molt4 cells,selectively downregulated ITK
"COc1cc(C)c(Sc2cnc(NC(=O)c3ccc(N4CCN(CCCCCCCNC(=O)COc5cccc6c5C(=O)N(C5CCC(=O)NC5=O)C6=O)CC4)cc3)s2)cc1C(=O)N1CCN(C(C)=O)CC1 (stereo not drawn) [compound 1, N-(5-((5-(4-acetylpiperazine-1-carbonyl)-4-methoxy-2-methylphenyl)thio)thiazol-2-yl)-4-(4-(7-(2-((2-(2,6-dioxopiperidin-3-yl)-1,3-dioxoisoindolin-4-yl)oxy)acetamido)heptyl)piperazin-1-yl)benzamide]",degradation of ITK protein in vivo (immunoblot of purified tumor cells),ITK [2],significant degradation of ITK protein in vivo
same,degradation of ITK protein (immunoblot),ITK [1]; 4 hours or 18 hours,rapid and pronounced degradation of ITK protein
same,concentration at which ITK degradation is evident,ITK [1]; 18 hours,1 nM
same,concentration of maximal ITK degradation,ITK [1]; 18 hours,1000 nM
same,degradation of ITK protein (immunoblot),ITK [1]; 18 hours,rapid and pronounced degradation of ITK protein
same,degradation of ITK protein (immunoblot),ITK [3],pronounced degradation of ITK protein
same,AUC % Extrap,"[4]; male C57BI/6 mice, single 2 mg/kg IV, plasma",5.14 % Extrap
same,"in vivo metabolic stability, exposure and clearance rate (overall assessment)","[4]; mouse PK, 2 mg/kg IV","good in vivo metabolic stability, exposure and clearance rate"
same,AUC(0-t),[4]; [7],1370 ng·h/mL and 1.34 µM·h
same,Cmax,[4]; [7],1710 ng/mL and 1.67 µM
same,Tmax,[4]; [7],4.8 min
same,half-life,[4]; [7],2.18 h
same,AUC(0-inf),"[4]; mouse, male C57BI/6 mice, single 2 mg/kg IV, plasma, read-out: AUCINF—obs (converted)",1440 ng·h/mL
same,clearance,"[4]; mouse, male C57BI/6 mice, single 2 mg/kg IV, plasma, read-out: Cl—obs",25.2 mL/min/kg
same,MRT inf,"[4]; mouse, male C57BI/6 mice, single 2 mg/kg IV, plasma, read-out: MRTINF—obs",1.96 h
same,Vd,"[4]; mouse, male C57BI/6 mice, single 2 mg/kg IV, plasma, read-out: VSS—obs",2.94 L/kg
same,ITK degradation induced by compound 1 after pre-treatment with excess BMS509744,ITK [5],rescued the degradation
same,cell death (percent PI-positive) compared with DMSO,DERL-2 cells; [8],induced cell death
same,inhibition of cell proliferation compared with DMSO,DERL-2 cells; [8],> 10 fold
same,cell proliferation and cell death of TCL cells,"DERL-2 cells; DERL-2 cells with IL-2, 1 μM",blocked cell proliferation and induced cell death
same,cell growth and cell death,Hut78 cells,did not inhibit cell growth or induce cell death
same,ITK degradation induced by compound 1 on treatment with MLN4924,ITK [6],rescued the degradation
same,proteins downregulated (relative protein abundance),Molt4 cells,"downregulated ITK, IKZF1, IKZF3, ZFP91, RNF166, ZNF653 and ZNF692"

# — patent publication US12678508B2, “Compounds for targeted degradation of interleukin-2-inducible T-cell kinase and methods of use” (DANA-FARBER CANCER INSTITUTE, INC., priority 2020, dated 2026)
